“And” between values parts separate entries of the source, which are not always exact repeats. Identical values can stand only once. “Also recorded” adds a separate entry of the source.
Experiments:
glucose tolerance = assay: Glucose tolerance in rats; assay type: in vivo, rat; details: 10, 30, or 100 mg/kg p.o. with glucose 1 g/kg p.o.
Source text: This effect may be due to a delayed absorption of glucose related to a possible effect on gastric emptying.

rats = assay: Oral toleration, 10 days, rats; assay type: in vivo, rat; details: 10 days, 50, 150 and 300 mg/kg/day
Experimental: Rats were given III orally by gavage at doses of 50, 150 and 300 mg/kg/day for 10 days.

bone marrow = assay: Bone marrow chromosomal damage, mice; assay type: in vivo, mouse; details: single oral 40 mg/kg; 6, 12 or 24 hours
Experimental: Single oral doses of III, 40 mg/kg, were administered to groups of mice who were sacrificed 6, 12 or 24 hours later. […] From these findings, it is evident that III has no obvious mutagenic potential.

[1] = test system: ulcerogenic effects of aspirin; assay: Protection against ulcerogenic effects of aspirin; assay type: in vivo; details: p.o.; aspirin 100 mg/kg p.o.
Experimental: Compound III also protects against the ulcerogenic effects of aspirin, 100 mg/kg p.o. where dose-related effects are seen over the dose range of 10 to 1000 μg/kg, p.o. with an ED50 of 100 μg/kg. Compound III is also active in a phenylbutazone gastric ulcer model where an oral ED50 of 200 μg/kg is observed. […] "Cytoprotective," a term coined recently to describe the antiulcer effects of prostaglandins that are independent of antisecretory activity, [Robert, Advances in Prostaglandin and Thromboxane Research 2, 507 (1976); Miller et al., Gut 20, 75 (1979); Robert et al., Gastroenterology 72, 1121 (1977).] aptly characterizes the effects of compound III.

ethanol-induced ulcer = assay: Ethanol-induced rat ulcer assay; assay type: in vivo; details: oral, 5 mg./kg.; Table III; listed as Formula I: (CH2)4
Experimental: Alternatively, the effectiveness of the products of this invention as antiulcer agents is determined in an ethanol-induced rat ulcer assay. In this test, overnight fasted male rats are given drug (5 mg./kg.) or water orally fifteen minutes prior to an orally administered dose of absolute ethanol (1.0 ml.). One hour after the ethanol challenge the animals (8/group) are killed and the stomachs examined for the presence of lesions. All drugs were dissolved in dilute NaOH. After sacrifice the abdomen is opened and a locking hemostat placed at the pylorus. 6 ml. of a 4% solution of formaldehyde was injected into the stomach with a gastric feeding tube and a second locking hemostat was used to seal the esophagus. The stomach was removed, opened along the greater curvature and examined for ulceration.
The scoring system used to quantitate the ethanol-induced lesions is given below.
For each group of animals an ulcer index is calculated as follows:
Ulceration Index=(the sum of the scores of the group)×(the sum of the number of ulcers in the group)×(the fraction of the group having any incidence of ulceration).
The percentage inhibition of ulcers is calculated as follows:
% Inhibition=100×[(ulcer index controls)-(ulcer index drug-treated)].div.(ulcer index controls).

[2] = Oral absorption and plasma concentrations, dogs; assay type: in vivo, dog
Experimental: This is supported by the observations of plasma concentrations of 3 to 7 μg/ml one hour after oral administration of III, 50 to 300 mg/kg.

point mutations = assay: Ames test in vitro; assay type: cell-based
serum enzyme levels = assay: Serum enzyme levels, intravenous five days, dogs; assay type: in vivo, dog; details: five days, 1, 3, 10, 3 and 3 mg/kg
[3] = test system: cold-restraint stress gastric ulcer; assay: Cold-restraint stressed rat ulcer assay; assay type: in vivo
Experimental: The effectiveness of the products of this invention as anticulcer agents is determined by the so-called cold-restraint stressed rat assay. In this test non-fasted female rats (Charles River C-D strain) weighing 70-140 gms. are administered the drug or carrier (control animals) intraperitoneally (in saline solution containing 1% carboxymethylcellulose and 0.1% Tween 80) or orally (in water) three hours before being lightly anesthetized with ether and taped in the supine position to individual sheets of plexiglass. After recovery from anesthesia, the restrained animals are positioned horizontally in a refrigerator maintained at 10°-12° C. and three hours later sacrificed by cervical dislocation. The abdomen of each rat is opened, the pylorus clamped, the stomach inflated with saline via an oral tube, the esophagus clamped and the stomach excised. The stomachs are placed in a 0.4% formaldehyde solution for approximately 30 seconds to harden the outer layers and facilitate examination. Each stomach is then cut open along the greater curvature and the glandular portion (hind stomach) examined for damage. The number of gastric erosions, their severity and the color of the stomachs is recorded. […]

[4] = test system: isolated guinea pig ileum (acetylcholine); assay: Isolated ileum spasm, acetylcholine; details: 10^-8 to 10^-4 M

With O=C(Nc1nnn[nH]1)c1cnc2sc3c(n2c1=O)CCCC3 [Compound III, N-(5-Tetrazolyl)-1-oxo-1H-cyclohexenothiazolo[3,2-a]pyrimidine-2-carboxamide] the glucose tolerance (glucose tolerance) was “apparent dose-dependent improvement in glucose tolerance”, the “pathological changes, gross and microscopic (liver, kidney, heart, lung)” value (rats; oral gavage) was “no resultant pathological changes” and the “clinical chemistry apart from serum glutamic-pyruvic transaminase” value (rats; oral) was “no changes in clinical chemistry were observed”. For the same molecule, the “chromosomal damage in bone marrow, single dose” value (bone marrow) was “did not reveal any chromosomal damage”, the “dose range of dose-related effects, aspirin ulcer” value [1] was 10 to 1000 µg/kg and the “% Inhibition in the Ethanol-Induced Rat Ulcer Assay, amides” value (ethanol-induced ulcer) was 97% and 81%. For the same molecule, the plasma concentration ([2]; one hour after oral 50 to 300 mg/kg, 60 min) was 9000 to 26000 ng/mL, the oral absorption ([2]; suspensions or capsules) was “absorbed readily after oral administration” and the “point mutations in Ames test” value (point mutations) was “did not induce point mutations”. For the same molecule, the serum enzyme levels (serum enzyme levels) was “remained normal”, the “oral dose range of dose-related protection, cold-restraint stress” value ([3]; oral) was 3 to 100 µg/kg and the “potency in cold-restraint stress gastric ulcer procedure” value ([3]; rat, in vivo) was “extremely potent; also recorded: highly potent”. For the same molecule, the “antagonism of spasm of isolated guinea pig ileum” value [4] was “does not antagonize spasms”.

Source: patent publication US4535081A, “Antiallergic and antiulcer 1-oxo-1H-thiazolo[3,2-a]pyrimidine-2-carboxamides and intermediates therefor” (Pfizer Inc., priority 1983, dated 1985)
